The nature of one data set: in vitro. Particulars: male, rat, microsomes.
The nature of data set [1]: In vitro metabolic stability in human liver microsomes (HLM). Particulars: both, human, liver microsomes.
Another data set relates to anesthetized rat. The data set can be described thus: Anesthetized rat spirometry screening assay. Particulars: 2 minute AUC of minute volume increase vs. comparator N-[2,6-di-(n-propylamino)-[1,3]pyrimidin-4-yl]-N,O-dimethyl-hydroxylamine. The format is in vivo. From the text: Effect of Compounds of the Invention on Respiratory Rate (RR), Tidal Volume (VT), and the Product Minute Volume Using an Anesthetized Rat Spirometry Screening Assay
Anesthetized rats provide a quick method of screening compounds for respiratory and cardiovascular activity. In contrast to the conscious rat model, this model offers an experimental set up with less variation in the baseline cardiovascular and respiratory measures. Compounds screened in this assay may be examined in a conscious rat model.
Rats were initially anesthetized with 3% isoflurane (inhaled) and femoral artery and vein cannulas were surgically inserted. Once cannulated, the rats were transitioned to urethane anesthesia (1.5 g/kg; i.v.) and a tracheal cut-down was performed. After placing the tracheal cannula, it was connected to a pneumotachometer to record respiratory airflow from which respiratory rate (RR), tidal volume (VT), and their product minute volume were derived. After the surgical preparation was complete, animals were allowed to stabilize for 30 minutes while respiratory rate, tidal volume, minute volume, blood pressure and heart rate were recorded continuously. Arterial blood gases (ABG) were obtained from arterial blood collected from the femoral artery. ABG measurements were taken before and 6 minutes after vehicle and each dose of compound administered. Compounds being screened were administered via bolus injections through the venous cannula followed by a saline flush (total time of administration is approximately 30 seconds), and the animal was monitored for at least 6 minutes for changes in cardiovascular efforts. Compounds were prepared in formulations identified to ensure optimal solubility. As such, vehicle controls were matched for the formulation of each compound tested. Dosing of the compound being screened was 0.1 and 0.3 mg/kg. The next dose was not administered until all cardiovascular and respiratory measures had returned to baseline levels. The positive control compounds used were N-[4,6-di-(n-propylamino)-[1,3,5]triazin-2-yl]-N,O-dimethyl-hydroxylamine or N-[2,6-di-(n-propylamino)-[1,3]pyrimidin-4-yl]-N,O-dimethyl-hydroxylamine (both administered at the end of each screening experiment (0.3 mg/kg dose) to validate the experiment and also to serve as a measure with which the compound being screened could be compared.
Data were analyzed by collecting cardiovascular and respiratory data in 30 second averages (BINs). Data were plotted 2 minutes before challenge and then 6 minutes after challenge.

Counter-ions that a name gives are not always drawn.

Broadly, the half-life is the time needed for the level to fall by half in the phase considered. A lower half-life goes with fast loss. In the case of `CCCCNc1nc(NCCC)c2nc(NCCCC)nc(NCCC)c2n1.Cl` [Compound 8a, N^2,N^6-Di-n-butyl-N^4,N^8-di-n-propyl-pyrimido[5,4-d]pyrimidine-2,4,6,8-tetraamine hydrochloride], the half-life at 5 μM was 5.52 h in “in vitro” and > 8.33 h in data set [1]. Further, the “AUC MV Inc (2 min) (ratio vs. std*)” value in the data set with anesthetized rat was found to be 0.14 ratio vs. std.

As for `CCCNc1nc(NC(C)C)nc2c(NCCC)nc(NC(C)C)nc12.Cl` [Compound 10a, N^2,N^6-Di-i-propyl-N^4,N^8-di-n-propyl-pyrimido[5,4-d]pyrimidine-2,4,6,8-tetraamine hydrochloride], the results for the half-life at 5 μM (in the data set “in vitro”; in data set [1]) were 2.7 h and 7.7 h, respectively. In the data set with anesthetized rat, the “AUC MV Inc (2 min) (ratio vs. std*)” value was 0.07 ratio vs. std.

Regarding `C#CCNc1nc(NC)nc2c(NCCC)nc(NC)nc12.Cl` [Compound 13a, N^2,N^6-Dimethyl-N^4-n-propyl-N^8-prop-2-ynyl-pyrimido[5,4-d]pyrimidine-2,4,6,8-tetraamine hydrochloride], the half-life at 5 μM in “in vitro” stood at 3.4 h; in data set [1], 5.7 h. In addition, in the data set on anesthetized rat, the “AUC MV Inc (2 min) (ratio vs. std*)” value is listed as 0.56 ratio vs. std.

Consider `CCCNc1nc(N(C)OC)nc2c(NCCC)nc(Cl)nc12.Cl` [Compound 17a, N-(6-Chloro-4,8-bis-n-propylamino-pyrimido[5,4-d]pyrimidin-2-yl)-O,N-dimethyl-hydroxylamine hydrochloride], for which the results for the half-life at 5 μM (in “in vitro”; in data set [1]) were 0.417 h and 0.483 h, respectively. Also, the “AUC MV Inc (2 min) (ratio vs. std*)” value with anesthetized rat is listed as 0.05 ratio vs. std.

With `CCCNc1nc(N(C)OC)nc2c(NCCC)nc(N(C)OC)nc12` [Compound 19a, N^2,N^6-Bis-(N-Methoxy(N-methyl)amino)-N^4,N^8-bis-n-propylamino-pyrimido[5,4-d]pyrimidine hydrochloride], the results for the half-life at 5 μM (in “in vitro”; in data set [1]) were 1.77 h and 1.83 h, respectively. Moreover, the “AUC MV Inc (2 min) (ratio vs. std*)” value in the data set on anesthetized rat came out at 0.00 ratio vs. std.

On to `CCCNc1nc(N(C)OC)nc2c(NCCC)nc(NC)nc12.Cl` [Compound 24a, O,N-Dimethyl-N-(6-methylamino-4,8-bis-n-propylamino-pyrimido[5,4-d]pyrimidin-2-yl)-hydroxylamine hydrochloride], for which the half-life at 5 μM stood at 2.7 h in “in vitro” and 1.98 h in data set [1]. The “AUC MV Inc (2 min) (ratio vs. std*)” value in the data set with anesthetized rat stood at 0.43 ratio vs. std.

As to `CCCNc1nc(N(C)C)nc2c(NCCC)nc(NC)nc12.Cl` [Compound 29a, N^2,N^2,N^6-Trimethyl-N^4,N^8-di-n-propyl-pyrimido[5,4-d]pyrimidine-2,4,6,8-tetraamine hydrochloride], the half-life at 5 μM in the data set “in vitro” came to 0.733 h; in data set [1] it was 1.57 h. For the same compound, the “AUC MV Inc (2 min) (ratio vs. std*)” value with anesthetized rat stood at 0.95 ratio vs. std.

Consider `CCCNc1nc(N(CC)CC)nc2c(NCCC)nc(NC)nc12.Cl` [Compound 31a, N^2,N^2-Diethyl-N^6-methyl-N^4,N^8-di-n-propyl-pyrimido[5,4-d]pyrimidine-2,4,6,8-tetraamine hydrochloride], for which the half-life at 5 μM was found to be 1.8 h in “in vitro” and 6.95 h in data set [1]. The “AUC MV Inc (2 min) (ratio vs. std*)” value in the data set with anesthetized rat amounted to 0.01 ratio vs. std.

As for `CCCNc1nc(NCCO)nc2c(NCCC)nc(NC)nc12` [Compound 33a, 2-(6-Methylamino-4,8-bis-n-propylamino-pyrimido[5,4-d]pyrimidin-2-yl-amino)-ethanol], the half-life at 5 μM worked out at 1.77 h in the data set “in vitro” and 1.92 h in data set [1]. Moreover, the “AUC MV Inc (2 min) (ratio vs. std*)” value with anesthetized rat is listed as 0.29 ratio vs. std.

`CCCNc1nc(NCCOC)nc2c(NCCC)nc(NC)nc12` [Compound 35a, N^2-(2-Methoxyethyl)-N^6-methyl-N^4,N^8-di-n-propyl-pyrimido[5,4-d]pyrimidine-2,4,6,8-tetraamine]: the figures for the half-life at 5 μM (in the data set “in vitro”; in data set [1]) were 1.7 h and 3.75 h, respectively. In the data set on anesthetized rat, the “AUC MV Inc (2 min) (ratio vs. std*)” value was 1.33 ratio vs. std.

With `CCCNc1nc(NCCOC(C)C)nc2c(NCCC)nc(NC)nc12` [Compound 37a, N^2-(2-Isopropoxy-ethyl)-N^6-methyl-N^4,N^8-di-n-propyl-pyrimido[5,4-d]pyrimidine-2,4,6,8-tetraamine], the half-life at 5 μM worked out at 1.27 h in “in vitro” and 2.25 h in data set [1]. For the same compound, the “AUC MV Inc (2 min) (ratio vs. std*)” value with anesthetized rat turned out to be 1.23 ratio vs. std.

On to `CCCNc1nc(N2CCCCC2)nc2c(NCCC)nc(NC)nc12` [Compound 43a, N^2-Methyl-N^4,N^8-di-n-propyl-6-(piperidin-1-yl)-pyrimido[5,4-d]pyrimidine-2,4,8-triamine], for which the half-life at 5 μM turned out to be 1.15 h in the data set “in vitro” and 1.63 h in data set [1]. Besides, the “AUC MV Inc (2 min) (ratio vs. std*)” value in the data set on anesthetized rat came out at 0.20 ratio vs. std.

For the compound `CCCNc1nc(N2CCCC2)nc2c(NCCC)nc(NC)nc12` [Compound 45a, N^2-Methyl-N^4,N^8-di-n-propyl-6-pyrrolidin-1-yl-pyrimido[5,4-d]pyrimidine-2,4,8-triamine], the half-life at 5 μM (in “in vitro”; in data set [1]) was > 8.33 h each time. In the data set with anesthetized rat, the “AUC MV Inc (2 min) (ratio vs. std*)” value is given as 0.41 ratio vs. std.

In the case of `CCCNc1nc(N2CCC(OC)CC2)nc2c(NCCC)nc(NC)nc12` [Compound 47a, N^2-Methyl-N^4,N^8-di-n-propyl-6-(4-methoxy-piperidin-1-yl)-pyrimido[5,4-d]pyrimidine-2,4,8-triamine], the half-life at 5 μM in “in vitro” was found to be 1.77 h; in data set [1], 1.83 h. Besides, in the data set on anesthetized rat, the “AUC MV Inc (2 min) (ratio vs. std*)” value is on record as 0.00 ratio vs. std.

On to `CCCNc1nc(NCc2cccc(Cl)c2C)nc2c(NCCC)nc(NC)nc12` [Compound 49a, N^2-(3-Chloro-2-methyl-benzyl)-N^6-methyl-N^4,N^8-di-n-propyl-pyrimido[5,4-d]pyrimidine-2,4,6,8-tetraamine hydrochloride], for which the half-life at 5 μM in “in vitro” was determined as 1.4 h; in data set [1], 3.17 h. Further, the “AUC MV Inc (2 min) (ratio vs. std*)” value with anesthetized rat is reported as 0.11 ratio vs. std.

As for `CCCNc1nc(NCc2ccc(Cl)c(Cl)c2)nc2c(NCCC)nc(NC)nc12` [Compound 51a, N^2-(3,4-Dichlorobenzyl)-N^6-methyl-N^4,N^8-di-n-propyl-pyrimido[5,4-d]pyrimidine-2,4,6,8-tetraamine], the values for the half-life at 5 μM (in “in vitro”; in data set [1]) were 1.2 h and 2.12 h, respectively. In addition, the “AUC MV Inc (2 min) (ratio vs. std*)” value in the data set with anesthetized rat is 0.08 ratio vs. std.

As for `CCCNc1nc(NCc2ccc(F)cc2)nc2c(NCCC)nc(NC)nc12` [Compound 53a, N^2-(4-Fluorobenzyl)-N^6-methyl-N^4,N^8-di-n-propyl-pyrimido[5,4-d]pyrimidine-2,4,6,8-tetraamine], the figures for the half-life at 5 μM (in “in vitro”; in data set [1]) were 1.57 h and 1.32 h, respectively. Besides, the “AUC MV Inc (2 min) (ratio vs. std*)” value with anesthetized rat came to 0.06 ratio vs. std.

As for `CCCNc1nc(NC)c2nc(Cl)nc(NC)c2n1` [Compound 54, 6-Chloro-N^4,N^8-dimethyl-N^2-n-propyl-pyrimido[5,4-d]pyrimidine-2,4,8-triamine], the half-life at 5 μM stood at 0.667 h in the data set “in vitro” and 1.37 h in data set [1]. Besides, the “AUC MV Inc (2 min) (ratio vs. std*)” value in the data set on anesthetized rat came to 0.09 ratio vs. std.

Consider `CNc1nc(NC)c2nc(NC)nc(NC)c2n1.Cl` [Compound 79a, N^2,N^4,N^6,N^8-Tetramethyl-pyrimido[5,4-d]pyrimidine-2,4,6,8-tetraamine hydrochloride], for which the half-life at 5 μM in “in vitro” was 6.47 h; in data set [1], > 8.33 h. The “AUC MV Inc (2 min) (ratio vs. std*)” value in the data set on anesthetized rat came to 0.00 ratio vs. std.

On to `CCNc1nc(NC)c2nc(NCC)nc(NC)c2n1.Cl` [Compound 81a, N^2,N^6-Diethyl-N^4,N^8-dimethyl-pyrimido[5,4-d]pyrimidine-2,4,6,8-tetraamine hydrochloride], for which the half-life at 5 μM is 4.57 h in “in vitro” and 3.3 h in data set [1]. Also, the “AUC MV Inc (2 min) (ratio vs. std*)” value with anesthetized rat stood at 0.00 ratio vs. std.

With `CCCCNc1nc(NC)c2nc(NCCCC)nc(NC)c2n1.Cl` [Compound 83a, N^2,N^6-Di-n-butyl-N^4,N^8-dimethyl-pyrimido[5,4-d]pyrimidine-2,4,6,8-tetraamine hydrochloride], the half-life at 5 μM in the data set “in vitro” was determined as 5.58 h; in data set [1], 4.15 h. In addition, in the data set with anesthetized rat, the “AUC MV Inc (2 min) (ratio vs. std*)” value was found to be 1.05 ratio vs. std.

Turning to `CCCNc1nc(NCC2CC2)nc2c(NCCC)nc(NCC3CC3)nc12` [Compound 140a, N^2,N^6-Bis-cyclopropylmethyl-N^4,N^8-di-n-propyl-pyrimido[5,4-d]pyrimidine-2,4,6,8-tetraamine], the half-life at 5 μM in the data set “in vitro” stood at 0.833 h; in data set [1], 1.18 h.

`CCCNC(=O)CNc1nc(NC)c2nc(NCCC)nc(NC)c2n1.Cl` [Compound 157a, N-n-Propyl-[2-(4,8-bis-methylamino-6-propylamino-pyrimido[5,4-d]pyrimidin-2-ylamino)]-acetamide hydrochloride]: the “AUC MV Inc (2 min) (ratio vs. std*)” value in the data set with anesthetized rat is 0.04 ratio vs. std.

These data come from patent US9643971B2 (GALLEON PHARMACEUTICALS, INC., priority 2013, dated 2017).
